# Measurements as given in BindingDB's records for doi:10.1016/s0014-2999(00)00916-x (The Royal Danish School of Pharmacy, 2001).
# Assays:
# [1] = target: Glutamate receptor ionotropic, kainate 1 (Rattus norvegicus, UniProt P22756)
# [2] = target: Glutamate receptor ionotropic, NMDA 1 (Rattus norvegicus, UniProt P35439)
# Glutamate receptor 3 = Glutamate receptor 3 (Rattus norvegicus, UniProt P19492)
# Glutamate receptor 3, sequence (P19492 whole entry): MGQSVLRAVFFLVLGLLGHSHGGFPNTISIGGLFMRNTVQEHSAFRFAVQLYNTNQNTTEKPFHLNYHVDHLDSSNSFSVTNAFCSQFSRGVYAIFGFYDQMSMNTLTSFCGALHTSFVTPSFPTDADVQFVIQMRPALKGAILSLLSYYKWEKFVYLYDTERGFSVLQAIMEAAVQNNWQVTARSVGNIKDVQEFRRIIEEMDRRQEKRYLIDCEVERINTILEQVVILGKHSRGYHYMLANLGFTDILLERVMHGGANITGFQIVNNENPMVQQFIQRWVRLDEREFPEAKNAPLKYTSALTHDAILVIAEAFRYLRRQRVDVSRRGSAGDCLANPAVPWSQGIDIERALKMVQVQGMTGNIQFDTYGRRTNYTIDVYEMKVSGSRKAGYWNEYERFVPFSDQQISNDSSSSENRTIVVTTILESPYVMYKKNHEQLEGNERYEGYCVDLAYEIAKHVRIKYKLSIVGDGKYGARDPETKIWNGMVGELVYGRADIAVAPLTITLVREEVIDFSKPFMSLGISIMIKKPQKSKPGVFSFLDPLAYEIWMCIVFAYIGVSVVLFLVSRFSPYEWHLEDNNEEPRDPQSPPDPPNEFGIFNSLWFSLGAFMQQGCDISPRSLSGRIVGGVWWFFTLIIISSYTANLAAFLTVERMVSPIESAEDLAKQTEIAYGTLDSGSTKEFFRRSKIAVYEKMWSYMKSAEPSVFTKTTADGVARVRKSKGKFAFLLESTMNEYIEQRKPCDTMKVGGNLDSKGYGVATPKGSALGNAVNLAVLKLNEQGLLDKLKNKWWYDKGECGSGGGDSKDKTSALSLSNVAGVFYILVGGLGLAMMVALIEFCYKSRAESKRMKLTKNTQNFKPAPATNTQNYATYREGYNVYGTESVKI
# Glutamate receptor ionotropic, kainate 1, sequence (P22756 whole entry): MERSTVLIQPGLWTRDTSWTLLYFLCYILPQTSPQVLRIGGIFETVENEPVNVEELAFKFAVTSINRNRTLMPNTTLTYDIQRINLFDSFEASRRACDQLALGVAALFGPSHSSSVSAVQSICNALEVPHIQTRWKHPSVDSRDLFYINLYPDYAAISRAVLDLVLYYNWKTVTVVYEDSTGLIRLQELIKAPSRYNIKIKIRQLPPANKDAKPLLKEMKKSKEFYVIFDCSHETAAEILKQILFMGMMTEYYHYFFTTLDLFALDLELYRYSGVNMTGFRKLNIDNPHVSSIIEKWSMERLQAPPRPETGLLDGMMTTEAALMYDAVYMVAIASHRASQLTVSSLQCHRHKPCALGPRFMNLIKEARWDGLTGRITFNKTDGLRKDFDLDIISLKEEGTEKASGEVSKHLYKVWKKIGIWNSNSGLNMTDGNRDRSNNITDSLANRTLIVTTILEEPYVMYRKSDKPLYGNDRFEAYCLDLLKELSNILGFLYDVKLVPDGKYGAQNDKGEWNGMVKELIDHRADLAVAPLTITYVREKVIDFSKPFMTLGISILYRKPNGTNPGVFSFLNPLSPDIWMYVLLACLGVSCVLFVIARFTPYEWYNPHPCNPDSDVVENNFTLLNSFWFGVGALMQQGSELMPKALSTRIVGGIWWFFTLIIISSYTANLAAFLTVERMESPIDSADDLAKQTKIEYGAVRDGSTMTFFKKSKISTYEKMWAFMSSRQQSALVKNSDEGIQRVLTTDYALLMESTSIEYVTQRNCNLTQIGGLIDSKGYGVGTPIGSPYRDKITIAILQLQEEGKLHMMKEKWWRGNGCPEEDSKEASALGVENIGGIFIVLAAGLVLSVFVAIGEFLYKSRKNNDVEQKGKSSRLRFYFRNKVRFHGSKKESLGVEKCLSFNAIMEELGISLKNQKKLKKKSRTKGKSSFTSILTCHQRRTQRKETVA
SMILES,Ki [1] [µM],Ki [2] [µM],Ki (Glutamate receptor 3) [µM]
CC(C)(C)c1snc(O)c1CC(N)C(=O)O (stereo not given) [Thio-ATPA-S],> 10,> 10,–
CC(C)(C)c1onc(O)c1CC(N)C(=O)O (stereo not given) [NSC_2253],–,–,> 10
CC(C)(C)c1o[nH]c(=O)c1C[C@@H](N)C(=O)O [ATPA-S],–,–,1.8
CC(C)(C)c1o[nH]c(=O)c1C[C@H](N)C(=O)O [ATPA-R],–,–,> 10
